Assay [1] concerns the target Chymotrypsinogen A (Bos taurus) (UniProt P00766). Kind of assay: Compound was tested for inhibitory activity against alpha-chymotrypsin at concentration of 1 uM.
The target in assay [2] is T1, Calpain-1 catalytic subunit (Homo sapiens, UniProt P07384).
T1 sequence (P07384 whole entry): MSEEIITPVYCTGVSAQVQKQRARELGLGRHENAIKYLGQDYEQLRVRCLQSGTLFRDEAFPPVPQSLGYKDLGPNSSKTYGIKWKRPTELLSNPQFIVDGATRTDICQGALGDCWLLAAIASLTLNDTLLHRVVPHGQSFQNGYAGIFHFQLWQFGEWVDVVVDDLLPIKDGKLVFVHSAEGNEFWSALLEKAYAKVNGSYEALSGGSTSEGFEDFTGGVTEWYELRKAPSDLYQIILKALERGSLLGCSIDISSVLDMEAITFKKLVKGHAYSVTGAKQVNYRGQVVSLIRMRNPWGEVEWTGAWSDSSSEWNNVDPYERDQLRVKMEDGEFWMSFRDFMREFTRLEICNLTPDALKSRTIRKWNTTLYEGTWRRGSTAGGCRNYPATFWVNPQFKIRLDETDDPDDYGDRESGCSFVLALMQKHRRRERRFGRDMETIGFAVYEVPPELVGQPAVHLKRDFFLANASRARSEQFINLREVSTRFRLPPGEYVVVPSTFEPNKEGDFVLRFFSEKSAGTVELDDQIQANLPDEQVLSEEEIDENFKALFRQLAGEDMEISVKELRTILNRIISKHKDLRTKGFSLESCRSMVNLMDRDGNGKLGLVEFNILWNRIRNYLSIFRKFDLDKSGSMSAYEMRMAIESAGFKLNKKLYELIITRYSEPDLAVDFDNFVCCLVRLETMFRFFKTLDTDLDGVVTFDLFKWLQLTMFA
The assay can be described thus: Compound was tested for inhibitory activity against recombinant human Calpain 1.

The target of the next assay is Cathepsin B (Homo sapiens, UniProt P07858). The assay can be described thus: Compound was tested for inhibitory activity against Cathepsin B.
Assay [3] concerns the target Chymotrypsinogen A (Bos taurus) (UniProt P00766). The assay can be described thus: Compound was tested for inhibitory activity against alpha-chymotrypsin at concentration of 10 uM.
In assay [4] the target is T2, Calpain-1 catalytic subunit (Homo sapiens) (UniProt P07384).
T2 sequence (whole entry): T1 sequence (P07384 whole entry)
Kind of assay: Compound was tested for inhibitory activity against recombinant human Calpain 1 at concentration of 1 uM.

Molecules are shown by their SMILES. Non-standard residues stand in square brackets, D forms with d. Residues, ends and D or L forms follow the SMILES beside them. *: point of attachment. Tos = Cc1ccc(S(=O)(=O)*)cc1; Ms = CS(=O)(=O)*

For orientation: inhibition means the relative decrease from the control value, in per cent. The compound `O=C[C@H](Cc1ccccc1)NC(=O)[C@H]1C[C@H](OS(=O)(=O)c2ccccc2)CN1S(=O)(=O)c1ccccc1` yielded an inhibition in assay [1] of 42%. In general, IC50 refers to the concentration that gives 50% inhibition. Consider `Cc1ccc(S(=O)(=O)N2C[C@H](C#N)CC2C(=O)N[C@H](C=O)Cc2ccccc2)cc1` (single isomer, unassigned), for which the results for the IC50 (in assay [2]; on Cathepsin B) were 28 nM and 8700 nM, respectively. This compound also came in with an inhibition in assay [3] of 6%. As for `Cc1ccc(S(=O)(=O)N2C[C@H](NS(C)(=O)=O)CC2C(=O)N[C@H](C=O)Cc2ccccc2)cc1` (single isomer, unassigned), in assay [4], the inhibition came out at 40%. For `Cc1ccc(S(=O)(=O)N2C[C@@H](OS(C)(=O)=O)C[C@@H]2C(=O)N[C@H](C=O)Cc2ccccc2)cc1`, the inhibition in assay [4] turned out to be 79%. Same read-out and setting: next, `Cc1ccc(S(=O)(=O)O[C@H]2C[C@H](C(=O)N[C@H](C=O)Cc3ccccc3)N(S(=O)(=O)c3ccc(C)cc3)C2)cc1`: 74%. Same read-out and setting: in the case of `Cc1ccc(S(=O)(=O)O[C@@H]2C[C@H](C(=O)N[C@H](C=O)Cc3ccccc3)N(S(=O)(=O)c3ccccc3)C2)cc1` it was 48%. In the case of `O=C[C@H](Cc1ccccc1)NC(=O)[C@@H]1CCCN1S(=O)(=O)c1ccccc1`, the IC50 amounted to 41 nM in assay [2] and 1400 nM on Cathepsin B.

Take `O=C[C@H](Cc1ccccc1)NC(=O)[C@@H]1C[C@@H](OCc2ccccc2)CN1S(=O)(=O)c1ccccc1`: the IC50 in assay [2] was 125 nM. Regarding `CS(=O)(=O)N1CCC[C@@H]1C(=O)N[C@H](C=O)Cc1ccccc1` (Ms-[dP]-Phe-aldehyde), the IC50 at Cathepsin B was determined as 3000 nM. In assay [3], the inhibition is 2%.

With `CS(=O)(=O)N1CCC[C@H]1C(=O)N[C@H](C=O)Cc1ccccc1` (Ms-Pro-Phe-aldehyde), the IC50 in assay [2] worked out at 45 nM; on Cathepsin B, 883 nM.

In turn, `Cc1ccc(S(=O)(=O)N2C[C@H](N=[N+]=[N-])CC2C(=O)N[C@H](C=O)Cc2ccccc2)cc1` (single isomer, unassigned) came in with a half-maximal inhibitory concentration (IC50) against Cathepsin B of over 10000 nM. In assay [3], the inhibition was 9%. Regarding `Cc1ccc(S(=O)(=O)N2C[C@H](NC(=O)C(F)(F)F)CC2C(=O)N[C@H](C=O)Cc2ccccc2)cc1` (single isomer, unassigned), in assay [2], the half-maximal inhibitory concentration (IC50) was 100 nM. As for `O=C[C@H](Cc1ccccc1)NC(=O)[C@@H]1C[C@@H](OS(=O)(=O)c2ccccc2)CN1S(=O)(=O)c1ccccc1`, the values for the 50% inhibitory concentration (IC50) (in assay [2]; against Cathepsin B) were 13 nM and 38 nM, respectively. On to `Cc1ccc(S(=O)(=O)N2CCC[C@@H]2C(=O)N[C@H](C=O)Cc2ccccc2)cc1` (Tos-[dP]-Phe-aldehyde), for which, at Cathepsin B, 3600 nM corresponded to half-maximal inhibition (IC50). Also, the inhibition in assay [3] is 12%.

The values above are taken from ChEMBL document CHEMBL1130591, “P2-proline-derived inhibitors of calpain I” (Bioorg Med Chem Lett, 1998).
